In patent US10209240B2, “Predicting human developmental toxicity of pharmaceuticals using human stem-like cells and metabolomic ratios” (STEMINA BIOMARKER DISCOVERY, INC., priority 2012, dated 2019):
Like-named read-outs stand apart in the source and are kept apart here.

Tests used:
[1] = therapeutic peak plasma in vivo concentration, human, cited from earlier work
WA09 hES cells [2] = conditions: for Teratogenicity Potential (μM) Cell Viability: human, 72 h
[3] = Solubility in DMSO for stock solutions
Protocol: Phase I hES Cell Compound Exposure. hES cells were treated with a test compound at a single concentration equivalent to the compound's published therapeutic Cmax. […] This was done to ensure that enough cells were present at the time of sample collection to provide a signal for LC-HRMS analysis. For test compound exposure, all compound stock solutions, with the exception of valproic acid, were made with DMSO (Sigma-Aldrich). […] Each 96-well plate included media controls with and without test compound, 0.1% DMSO solvent control cells and cells exposed to a single concentration of eight different test compounds (FIG. 1A). Media controls were included on each plate to assess the impact of test compound on the sample matrix. hES cells were exposed to the test compound for 72 hours, with media and test compound replacement every 24 hours. Cells were monitored throughout the treatment period to ensure that no differentiation was occurring. After 72 hours of treatment, the spent media from the final 24-hour treatment period was collected and added to acetonitrile (Sigma-Aldrich, final acetonitrile concentration 40%), to halt metabolic processes and precipitate proteins from solution. Individual wells from each 96-well plate were collected and analyzed as separate samples. These samples were then stored at −80° C. until prepared for LC-HRMS analysis. Cell viability was assessed using the CellTiter-Fluor Cell Viability Assay as per the manufacturer's instructions (Promega, Madison, Wis.). […]
Phase 2 hES Cell Compound Exposure. […] Cell viability was assessed using the CellTiter-Fluor Cell Viability Assay. A quality control step was included with criteria that the CV of the measured viability RFU of the DMSO control cells could not exceed 10% for a plate to undergo LC-HRMS analysis. […]

[4] = summarized from TERIS and Briggs et al. 2011, cited from earlier work
Rabbit = conditions: training and test set; cited from earlier work
hES cells [5] = assay: ADMA/cystine ratio simplified predictive model in hES cell spent media; assay type: cell-based, human; conditions: single dose per treatment; ratios less than 0.9 indicate teratogenicity
In short: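 hES cell spent media were analysed for ADMA and cystine, each normalized to the DMSO reference, and their ratio formed. Each value is the median of independent blocks (6 reps each). A ratio cutoff of 0.9 classifies teratogens versus non-teratogens.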

Humans = conditions: cited from earlier work; for Humans (known human developmental toxicity): training and test set
WA09 hES cells [6] = assay: Phase 2 targeted biomarker assay, ornithine/cystine ratio, 9-point dose response; conditions: for Teratogenicity Potential (μM) O/C Ratio: human, 72 h
In short: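 WA09 hES cells (≤ passage 40), plated as single cells at 100,000/well on Matrigel in mTeSR1 with 10 μM Y27632, dosed 24 h later with nine 3-fold dilutions, 0.04–300 μM, 0.1% DMSO, for 72 h. Final-24 h spent medium, spiked with 13C6-arginine and filtered (<10 kDa), analysed by LC-HRMS; viability by CellTiter-Fluor.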

hES cells [7] = assay: devTOX computational model predictions (Version 2.0, Version 2.1) from hES cell metabolomics; assay type: cell-based, human; conditions: single dose per treatment (Dose column)
Description: The selection process weighted the predictive capacity of a feature, overall intensity, and peak shape to identify very well behaved features/metabolites that could be measured by targeted LC-MS or even by other detection systems.
This simplified model is based on a ratio of the reference treatment (DMSO) normalized values of ADMA and cystine.

[8] = tested on: mouse embryonic stem cell; conditions: training and test set; weak/moderate and strong teratogens both labeled teratogen; cited from earlier work
rat whole embryo = conditions: training and test set; weak/moderate and strong teratogens both labeled teratogen; cited from earlier work
zebrafish = conditions: training and test set; weak/moderate and strong teratogens both labeled teratogen; cited from earlier work
Rodent = conditions: training and test set; cited from earlier work
rat = conditions: cited from earlier work

| Compound | Cmax ([1]; training set) | Viability Prediction (WA09 hES cells [2]) | Teratogenicity Potential (μM) Cell Viability (WA09 hES cells [2]) | Rabbit prediction (Rabbit) | Model Predictions ADMA/Cystine (hES cells [5]) | Humans (known human developmental toxicity) (Humans) | O/C Ratio Prediction (WA09 hES cells [6]) | Targeted Biomarker Assay prediction (WA09 hES cells [6]) | Teratogenicity Potential (μM) O/C Ratio (WA09 hES cells [6]) | Model Predictions Version 2.0 (hES cells [7]) | Model Predictions Version 2.1 (hES cells [7]) | mEST prediction [8] | ZET prediction (zebrafish) | Rodent prediction (Rodent) | Cmax ([1]; test set) | Preclinical in vivo and known human developmental effects ([4]; test set compounds) | also measured |
| --- | --- | --- | --- | --- | --- | --- | --- | --- | --- | --- | --- | --- | --- | --- | --- | --- | --- |
| CCCC(CCC)C(=O)O [Valproic Acid] | 1000 µM | NON | 1113.7 µM | TER^u | Ter | TER | TER | TER | 90.8 µM | Ter | Ter | TER^b,i | TER^e,n | TER | – | – | Solubility in DMSO (words) ([3]; at the stock concentrations used in this study, listed as Valproic acid): insoluble in DMSO; Solubility in DMSO (words) ([3]; at the stock concentrations used in this study, listed as valproic acid): completely insoluble in DMSO; Preclinical in vivo and known human developmental effects ([4]; training set compounds): Central nervous system,; Known Effect (Humans; validation and test set treatments of Example 2): Ter; Change in the o/c ratio, also relative to cytotoxicity (WA09 hES cells [6]): marked change in the o/c ratio at exposure levels well before cytotoxicity is observed; WEC prediction (rat whole embryo): TER^f,j |
| CS(=O)(=O)CCNCc1ccc(-c2ccc3ncnc(Nc4ccc(OCc5cccc(F)c5)c(Cl)c4)c3c2)o1 [Lapatinib] | – | NON | 20.8 µM | TER | – | TER | NON | NON | 29 µM | – | – | – | – | TER | 4.2 µM | Skeletal, embryo toxicity^c | Exposure level causing rat pup mortality relative to human clinical exposure based on AUC (rat; given during organogenesis, Briggs et al. 2011): about 3.3 times |
| Nc1nc2ncc(CNc3ccc(C(=O)N[C@@H](CCC(=O)O)C(=O)O)cc3)nc2c(=O)[nH]1 [Folic Acid] | 0.035 µM | NON | >300 µM | – | Non | NON | – | NON | – | Ter | Non | – | – | – | – | – | Solubility in DMSO (words) [3]: completely insoluble in DMSO |
| CC[C@H](C)C(=O)O[C@H]1C[C@@H](C)C=C2C=C[C@H](C)[C@H](CC[C@@H]3C[C@@H](O)CC(=O)O3)[C@H]21 [Lovastatin] | – | NON | 4.1 µM | NON | – | TER | NON | NON | 1.3 µM | – | – | TER^m | TER^d | TER | 0.02 µM | Skeletal, embryo toxicity^c | Cmax (rat; in vivo, 100 mg/kg/day): ~1.5 µM; lowest observed adverse effect level (LOAEL) (rat; in vivo): 100 mg/kg body weight per day |
